Experimental data taken from the NIST ThermoML archive (doi:10.1016/j.fluid.2015.03.033).
Several values for one entry are separate records, joined by “and”; a condition that tells them apart may be missing. Identical values can stand only once. ± gives the expanded uncertainty stated by the source.

Tests used:
[1] = Liquid, Closed cell (Static) method
[2] = excess molar enthalpy (molar enthalpy of mixing); xn = mol fraction of the nth substance listed; conditions: 303.15 K, 100 kPa, Liquid, Calvet calorimetry

Cc1cnccn1 [2-methylpyrazine]
[1]
Conditions | vapor or sublimation pressure [kPa]
263.72 K | 0.109 ± 0.06
273.47 K | 0.23 ± 0.06
283.27 K | 0.457 ± 0.06
293.24 K | 0.866 ± 0.021
303.18 K | 1.563 ± 0.012
313.12 K | 2.697 ± 0.014
323.13 K | 4.476 ± 0.018
333.11 K | 7.151 ± 0.024
343.05 K | 11.03 ± 0.033
353.03 K | 16.61 ± 0.046
362.95 K | 24.08 ± 0.059

Cc1cnccn1 [2-methylpyrazine] + C1CCCCC1
[2]
Conditions | excess molar enthalpy [kcal/mol]
x1 = 0.094 | 0.163 ± 0.017
x1 = 0.153 | 0.234 ± 0.0237
x1 = 0.251 | 0.308 ± 0.0311
x1 = 0.381 | 0.356 ± 0.0359
x1 = 0.474 | 0.364 ± 0.0359
x1 = 0.566 | 0.36 ± 0.0359
x1 = 0.639 | 0.331 ± 0.0335
x1 = 0.766 | 0.242 ± 0.0239
x1 = 0.845 | 0.175 ± 0.0179

Cc1cnccn1 [2-methylpyrazine] + CCCCCCC
[2]
Conditions | excess molar enthalpy [kcal/mol]
x1 = 0.082 | 0.135 ± 0.0146
x1 = 0.175 | 0.257 ± 0.0263
x1 = 0.335 | 0.353 ± 0.0359
x1 = 0.411 | 0.369 ± 0.0359
x1 = 0.481 | 0.37 ± 0.0359
x1 = 0.523 | 0.369 ± 0.0359
x1 = 0.622 | 0.344 ± 0.0335
x1 = 0.704 | 0.298 ± 0.0287
x1 = 0.809 | 0.231 ± 0.0234
x1 = 0.877 | 0.167 ± 0.0172

Cc1cnccn1 [2-methylpyrazine] + Cc1ccccc1
[2]
Conditions | excess molar enthalpy [kcal/mol]
x1 = 0.156 | 0.00669 ± 0.000717
x1 = 0.256 | 0.0115 ± 0.0012
x1 = 0.421 | 0.0174 ± 0.00167
x1 = 0.465 | 0.0179 ± 0.00191
x1 = 0.475 | 0.0179 ± 0.00191
x1 = 0.561 | 0.0165 ± 0.00167
x1 = 0.698 | 0.00932 ± 0.000956
x1 = 0.76 | 0.00693 ± 0.000717

C1CCCCC1 [cyclohexane]
[1]
Conditions | vapor or sublimation pressure [kPa]
283.32 K | 6.389 ± 0.023
288.28 K | 8.195 ± 0.026
293.27 K | 10.42 ± 0.031
298.25 K | 13.17 ± 0.037
303.27 K | 16.45 ± 0.046
313.24 K | 24.97 ± 0.062
323.21 K | 36.72 ± 0.086
333.21 K | 52.48 ± 0.12
343.18 K | 72.98 ± 0.15
353.14 K | 99.11 ± 0.2

CCCCCCC [heptane]
[1]
Conditions | vapor or sublimation pressure [kPa]
263.45 K | 0.817 ± 0.008
273.27 K | 1.548 ± 0.011
283.21 K | 2.77 ± 0.014
293.25 K | 4.772 ± 0.019
303.15 K | 7.807 ± 0.026
313.12 K | 12.41 ± 0.037
323.1 K | 18.98 ± 0.052
333.07 K | 28.13 ± 0.073
343.04 K | 40.62 ± 0.1
353.01 K | 57.56 ± 0.13

Cc1ccccc1 [toluene]
[1]
Conditions | vapor or sublimation pressure
263.64 K | 0.484 ± 0.005 kPa
273.47 K | 0.925 ± 0.009 kPa
283.32 K | 1.68 ± 0.011 kPa
293.24 K | 2.926 ± 0.014 kPa
298.25 K | 3.803 ± 0.016 kPa
303.21 K | 4.896 ± 0.019 kPa
303.23 K | 4.896 ± 0.019 kPa and 4.894 ± 0.019 kPa
313.19 K | 7.872 ± 0.025 kPa
313.22 K | 7.872 ± 0.025 kPa
323.22 K | 12.25 ± 0.035 kPa
333.2 K | 18.57 ± 0.049 kPa
343.16 K | 27.2 ± 0.064 kPa
